Laboratory results: patent US9095565B2, “Methods for treating blood disorders” (Phoenicia Biosciences, Inc., priority 2006, dated 2015)

Key:
γ globin promoter = experiment: β/γ-globin promoter driven reporter gene assay; type: cell-based; conditions: Table 2
γ-globin mRNA = γ-globin mRNA by RT-PCR in erythroid colonies cultured from cord blood; type: cell-based, human; conditions: for Concentration required: increase in fetal globin mRNA, erythroid colonies from cord blood; for No. of Positive responses: positive cultures/cultures tested
Procedure: γ-globin mRNA was analyzed in control and treated erythroid colonies cultured from cord blood, by RT-PCR.

[1] = tested on: Erythroid colonies (BFU-E); experiment: Experiment 2: erythroid colonies (BFU-E) cultured from patients with beta thalassemia; type: cell-based, human; conditions: optimal panel of growth factors
Procedure: (§1) Erythroid burst-forming units (BFU-E) (erythroid progenitors) and colony-forming units granulocyte-macrophage (CFU-GM) (myeloid colonies) were cultured in semi-solid or in two-phase suspension media, with or without hematopoietic growth factors at high levels (e.g., erythropoietin at 3 U/ml) or reduced levels (BFU-E cell proliferation was evaluated by enumeration in colonies developing in the presence of reduced amounts of erythropoietin (0.5 U/ml) rather than 3 U (or 3000 mU)/ml, which is standard for these experimental systems), from cord blood or the peripheral blood of several types of humans. Experiments were carried out on samples derived from 1) β-thalassemia patients who expressed variable levels of fetal globin at baseline (and in untreated control cultures) and represent a variety of potential individual responses, 2) from normal umbilical cord blood samples, which express 40-50% fetal globin at baseline (and in untreated control cultures), 3) from CD34+ cells isolated from normal adult peripheral blood, which expressed low levels of fetal globin in untreated control cultures and at baseline; and 4) from peripheral blood of patients with sickle cell disease who were receiving treatment with hydroxyurea. These biological samples provide a range of potential difficulty in stimulating fetal globin expression in human patients.
Erythroid colonies were cultured from patients with beta thalassemia, either without any test compounds (Control), only an optimal panel of hematopoietic growth factors, or with one of the test compounds M, P, T, 2-methyl-1-benzofuran-4-carboxylic acid, V, W, X, Y, AK, AC, or AI. […] Colony numbers were increased above the control cultures (% BFU-E/Control) by anywhere from 25% to 230%. Each of the listed test compounds was tested in at least 5 different patients' blood and the differences were statistically significant.

[2] = tested on: cells expressing fetal globin (F-cells); experiment: Experiment 1: proportion of F-cells in hematopoietic colonies by FACScan; type: cell-based, human; conditions: same low concentrations as for fetal globin mRNA induction
Procedure: as §1
Hematopoietic colonies were enumerated with or without (+/−) the test compounds, and compared to colonies which developed in the presence of hematopoietic growth factors alone from the same subject (untreated control colonies), and proportions of cells expressing fetal globin (F-cells) were analyzed by FACScan analysis.

BFU-E = BFU-E cultured from cord blood; type: cell-based, human
Procedure: as §1
In a related study, BFU-E cultured from cord blood, was tested with or without compound M, P, R, T, W, Y, Z, AI, F, or 3-(5-chlorothien-3-yl)acrylic acid.

O=C(O)CCC1(c2ccc(Cl)s2)CCCCC1 [AJ]
% γ globin promoter induction (above untreated control) (γ globin promoter): ** (‘**’ indicates a 100%-200% increase)

COc1cc(OC)cc(Oc2ccccc2C(=O)O)c1 [O]
% γ globin promoter induction (above untreated control) (γ globin promoter): * (‘*’ indicates a 80-100% increase)

Cc1cc(SCC(=O)O)cs1 [AH]
% γ globin promoter induction (above untreated control) (γ globin promoter): ** (‘**’ indicates a 100%-200% increase)

COc1cccc(SCC(=O)O)c1 [V]
Concentration required (γ-globin mRNA): 5 µM
No. of Positive responses (γ-globin mRNA): 6/6
number of erythroid colonies compared to matched control cultures [1]: increased the number of colonies
proportion of F-cells above the percentage in untreated controls [2]: significant increases
% γ globin promoter induction (above untreated control) (γ globin promoter): ** (‘**’ indicates a 100%-200% increase)

O=C(O)C1CCc2snnc2C1 (centres unmarked) [AB]
% γ globin promoter induction (above untreated control) (γ globin promoter): ** (‘**’ indicates a 100%-200% increase)

Cc1cc2c(C(=O)O)cccc2o1 [2-methyl-1-benzofuran-4-carboxylic acid]
Concentration required (γ-globin mRNA): 5 µM
No. of Positive responses (γ-globin mRNA): 6/6
number of erythroid colonies compared to matched control cultures [1]: increased the number of colonies
proportion of F-cells above the percentage in untreated controls [2]: significant increases

O=C1CC(C(=O)O)Cc2ccsc21 (centres unmarked) [AG]
% γ globin promoter induction (above untreated control) (γ globin promoter): ** (‘**’ indicates a 100%-200% increase)

O=C(O)CN1C(=O)S/C(=C/c2ccccc2O)C1=O [K]
% γ globin promoter induction (above untreated control) (γ globin promoter): * (‘*’ indicates a 80-100% increase)

O=C(CC1(C(=O)O)CCCCC1)c1cccs1 [AF]
% γ globin promoter induction (above untreated control) (γ globin promoter): * (‘*’ indicates a 80-100% increase)

O=C(O)Cn1ccc(=O)cc1 [AA]
% γ globin promoter induction (above untreated control) (γ globin promoter): ** (‘**’ indicates a 100%-200% increase)

O=C(O)/C=C/c1ccnc2ccccc12 [F]
proportion of F-cells above the percentage in untreated controls [2]: significant increases
% γ globin promoter induction (above untreated control) (γ globin promoter): *** (‘***’ indicates an over 200% increase of γ globin promoter induction over untreated controls)
numbers of BFU-E colonies compared to controls (BFU-E): increased numbers of colonies

O=C(O)c1cccc(Cn2cc(Cl)cn2)c1 [Z]
proportion of F-cells above the percentage in untreated controls [2]: significant increases
% γ globin promoter induction (above untreated control) (γ globin promoter): ** (‘**’ indicates a 100%-200% increase)
numbers of BFU-E colonies compared to controls (BFU-E): increased numbers of colonies

O=C1CSc2ccc(C(=O)O)cc2N1 [T]
number of erythroid colonies compared to matched control cultures [1]: increased the number of colonies
proportion of F-cells above the percentage in untreated controls [2]: significant increases
% γ globin promoter induction (above untreated control) (γ globin promoter): ** (‘**’ indicates a 100%-200% increase)
numbers of BFU-E colonies compared to controls (BFU-E): increased numbers of colonies

O=C(O)Cc1[nH]c(=O)cc(O)c1C(=O)O [S]
% γ globin promoter induction (above untreated control) (γ globin promoter): ** (‘**’ indicates a 100%-200% increase)

O=C(O)CSc1nnc(S)s1 [AE]
% γ globin promoter induction (above untreated control) (γ globin promoter): ** (‘**’ indicates a 100%-200% increase)

O=C(O)C=Cc1csc(Cl)c1 [3-(5-chlorothien-3-yl)acrylic acid]
Concentration required (γ-globin mRNA): 30 µM
proportion of F-cells above the percentage in untreated controls [2]: significant increases
numbers of BFU-E colonies compared to controls (BFU-E): increased numbers of colonies

O=C(O)Cn1cc(Cl)c([N+](=O)[O-])n1 [AC]
number of erythroid colonies compared to matched control cultures [1]: increased the number of colonies
% γ globin promoter induction (above untreated control) (γ globin promoter): ** (‘**’ indicates a 100%-200% increase)

COc1cc(OC)cc(SC(C(=O)O)C(C)C)c1 (centres unmarked) [Q]
% γ globin promoter induction (above untreated control) (γ globin promoter): ** (‘**’ indicates a 100%-200% increase)

Cn1cnnc1SCC(=O)O [AD]
% γ globin promoter induction (above untreated control) (γ globin promoter): ** (‘**’ indicates a 100%-200% increase)

O=C(O)CNc1ccc(SC(F)(F)F)cc1 [N]
proportion of F-cells above the percentage in untreated controls [2]: significant increases
% γ globin promoter induction (above untreated control) (γ globin promoter): *** (‘***’ indicates an over 200% increase of γ globin promoter induction over untreated controls)
